Assay results reported in article PMC9727700 (Redox Biology, 2022).

Legend:
SH-SY5Y cells [1] = assay: Intracellular 4-HNE levels in fatty acid-treated SH-SY5Y cells; assay type: cell-based, human; conditions: 50 μM
SH-SY5Y cells [2] = assay: Rotenone-treated SH-SY5Y cells: mitochondrial membrane potential; assay type: cell-based, human; conditions: rotenone 1 μM; HY08 0.3 μM; NAC 1 μM

SMILES	intracellular 4-HNE production (SH-SY5Y cells [1])	rotenone-induced mitochondrial membrane potential loss and cell death (SH-SY5Y cells [2])
CCCCC/C=C\C/C=C\C/C=C\C/C=C\CCCC(=O)O [AA, arachidonic acid]	significantly enhanced	–
CC(=O)N[C@@H](CS)C(=O)O [NAC, N-Acetyl cysteine]	–	exerted inhibitory effects
